Experimental data as given in the NIST ThermoML archive (doi:10.1021/je500669y).

Assay: xn = mol fraction of the nth substance listed
Details: Gas, isochoric method

F/C=C/C(F)(F)F [trans-1,3,3,3-tetrafluoropropene] + C
Details | specific volume [m3/kg]
263.12 K, 541.7 kPa, x2 = 0.747 | 0.092
273.11 K, 305.7 kPa, x2 = 0.513 | 0.113
273.14 K, 216.8 kPa, x2 = 0.31 | 0.12
273.19 K, 565.7 kPa, x2 = 0.747 | 0.092
283.07 K, 225.4 kPa, x2 = 0.31 | 0.12
283.29 K, 1326.6 kPa, x2 = 0.748 | 0.041
283.3 K, 588.9 kPa, x2 = 0.747 | 0.092
283.38 K, 319 kPa, x2 = 0.513 | 0.113
288.33 K, 665.7 kPa, x2 = 0.496 | 0.051
293.03 K, 233.9 kPa, x2 = 0.31 | 0.12
293.03 K, 611.2 kPa, x2 = 0.747 | 0.092
293.06 K, 330.6 kPa, x2 = 0.513 | 0.113
293.17 K, 1381 kPa, x2 = 0.748 | 0.041
293.26 K, 456.1 kPa, x2 = 0.251 | 0.056
293.33 K, 681.4 kPa, x2 = 0.496 | 0.051
303.15 K, 474.1 kPa, x2 = 0.251 | 0.056
303.16 K, 242.4 kPa, x2 = 0.31 | 0.12
303.16 K, 711.2 kPa, x2 = 0.496 | 0.051
303.16 K, 1435.1 kPa, x2 = 0.748 | 0.041
303.22 K, 634.1 kPa, x2 = 0.747 | 0.092
303.23 K, 342.7 kPa, x2 = 0.513 | 0.113
313.15 K, 251 kPa, x2 = 0.31 | 0.121
313.15 K, 995.8 kPa, x2 = 0.261 | 0.026
313.19 K, 354.4 kPa, x2 = 0.513 | 0.113
313.2 K, 1488.8 kPa, x2 = 0.748 | 0.041
313.22 K, 1512.1 kPa, x2 = 0.513 | 0.024
313.23 K, 657.6 kPa, x2 = 0.747 | 0.092
313.24 K, 738.5 kPa, x2 = 0.496 | 0.051
323.17 K, 259 kPa, x2 = 0.31 | 0.121
323.17 K, 510.4 kPa, x2 = 0.251 | 0.056
323.19 K, 366.1 kPa, x2 = 0.513 | 0.113
323.19 K, 765.2 kPa, x2 = 0.496 | 0.051
323.21 K, 1040.8 kPa, x2 = 0.261 | 0.026
323.27 K, 1573.2 kPa, x2 = 0.513 | 0.024
323.29 K, 1542.4 kPa, x2 = 0.748 | 0.041
323.35 K, 680.5 kPa, x2 = 0.747 | 0.092
333.18 K, 1636.8 kPa, x2 = 0.513 | 0.024
333.2 K, 702.6 kPa, x2 = 0.747 | 0.092
333.2 K, 792 kPa, x2 = 0.496 | 0.051
333.25 K, 378.1 kPa, x2 = 0.513 | 0.113
333.25 K, 1083.7 kPa, x2 = 0.261 | 0.026
333.25 K, 1595.7 kPa, x2 = 0.748 | 0.041
333.27 K, 267.5 kPa, x2 = 0.31 | 0.121
343.11 K, 546.9 kPa, x2 = 0.251 | 0.056
343.12 K, 1126.5 kPa, x2 = 0.261 | 0.026
343.16 K, 389.7 kPa, x2 = 0.513 | 0.113
343.18 K, 275.8 kPa, x2 = 0.31 | 0.121
343.23 K, 818.7 kPa, x2 = 0.496 | 0.051
343.23 K, 1648.5 kPa, x2 = 0.748 | 0.041
343.25 K, 725.3 kPa, x2 = 0.747 | 0.092
343.34 K, 1700.6 kPa, x2 = 0.513 | 0.024
353.15 K, 747.4 kPa, x2 = 0.747 | 0.092
353.17 K, 284.2 kPa, x2 = 0.31 | 0.121
353.22 K, 401.5 kPa, x2 = 0.513 | 0.113
353.23 K, 1167.7 kPa, x2 = 0.261 | 0.026
353.23 K, 1701.4 kPa, x2 = 0.748 | 0.041
353.24 K, 845 kPa, x2 = 0.496 | 0.051
353.34 K, 1759 kPa, x2 = 0.513 | 0.024
363.15 K, 292.6 kPa, x2 = 0.31 | 0.121
363.16 K, 1209.5 kPa, x2 = 0.261 | 0.026
363.19 K, 1820.5 kPa, x2 = 0.513 | 0.024
363.21 K, 770.2 kPa, x2 = 0.747 | 0.092
363.24 K, 413.1 kPa, x2 = 0.513 | 0.114
363.25 K, 871.2 kPa, x2 = 0.496 | 0.051
363.28 K, 1754.1 kPa, x2 = 0.748 | 0.041
373.1 K, 424.6 kPa, x2 = 0.513 | 0.114
373.1 K, 1251.1 kPa, x2 = 0.261 | 0.026
373.11 K, 1881.5 kPa, x2 = 0.513 | 0.024
373.2 K, 301 kPa, x2 = 0.31 | 0.121
373.23 K, 600.7 kPa, x2 = 0.251 | 0.056
373.23 K, 897.8 kPa, x2 = 0.496 | 0.051
373.27 K, 792.6 kPa, x2 = 0.747 | 0.092
373.27 K, 1806.6 kPa, x2 = 0.748 | 0.041
383.17 K, 1940.6 kPa, x2 = 0.513 | 0.025
383.18 K, 1291.3 kPa, x2 = 0.261 | 0.026
383.25 K, 815 kPa, x2 = 0.747 | 0.092
383.28 K, 309.5 kPa, x2 = 0.31 | 0.121
383.3 K, 437 kPa, x2 = 0.513 | 0.114
383.31 K, 1859.5 kPa, x2 = 0.748 | 0.041
383.33 K, 924.1 kPa, x2 = 0.496 | 0.051
393.06 K, 1327 kPa, x2 = 0.261 | 0.026
393.1 K, 2000.7 kPa, x2 = 0.513 | 0.025
393.13 K, 317.8 kPa, x2 = 0.31 | 0.121
393.14 K, 837.2 kPa, x2 = 0.747 | 0.092
393.22 K, 448.6 kPa, x2 = 0.513 | 0.114
393.32 K, 950.3 kPa, x2 = 0.496 | 0.051
393.33 K, 1911.9 kPa, x2 = 0.748 | 0.041
403.03 K, 2059.7 kPa, x2 = 0.513 | 0.025
403.12 K, 1366.9 kPa, x2 = 0.261 | 0.026
403.17 K, 460.3 kPa, x2 = 0.513 | 0.114
403.18 K, 326.4 kPa, x2 = 0.31 | 0.121
403.21 K, 860 kPa, x2 = 0.747 | 0.092
403.26 K, 1963.8 kPa, x2 = 0.748 | 0.041
403.27 K, 976.2 kPa, x2 = 0.496 | 0.051
412.96 K, 2117.2 kPa, x2 = 0.513 | 0.025
413.15 K, 1405.5 kPa, x2 = 0.261 | 0.026
413.18 K, 472 kPa, x2 = 0.513 | 0.114
413.23 K, 881.9 kPa, x2 = 0.747 | 0.092
413.29 K, 2016 kPa, x2 = 0.748 | 0.041
413.3 K, 1002.5 kPa, x2 = 0.496 | 0.052
413.34 K, 334.9 kPa, x2 = 0.31 | 0.121
413.38 K, 671.6 kPa, x2 = 0.251 | 0.056
